Test results reported in patent US12485117B2, “Compositions and methods for activating signaling through the CB1 cannabinoid receptor for treating and preventing diseases and disorders characterized by abnormal cellular accumulation of sphingolipids such as sphingomyelin” (Wylder Nation Foundation, priority 2018, dated 2025).

How the values were obtained:
[1] = test system: ASMko cultured neurons; experiment: MAP2 immunofluorescence of dendrites in ASMko cultured neurons; format: cell-based, mouse; settings: 50 μM for 1 hour
[2] = test system: wt and ASMko mice; experiment: Weekly body weight during 8-week oral treatment; format: in vivo, mouse; settings: 0.3 mg/kg oral gavage every three days, 8 weeks
Procedure: We divided wt and ASMko into four groups: wt, wt+FAAHi, ASMko, ASMko+FAAHi. Each group included 14 animals with females and males in equal proportions.
(§1) Treatment started at 7 weeks of age and continued for 8 weeks. PF-04457845 was dissolved in 0.9% NaCl and delivered through oral gavage at a dose of 0.3 mg/kg every three days. We chose this dose based on the studies published by Ahn et al., (J Pharm Exp Ther 2011). Control groups received same volume of 0.9% NaCl without PF-04457845.
(§2) Behavioral analyses were performed in the last 2 weeks of treatment while still administering the drug. Then, half of the mice were sacrificed for biochemical and histological analysis and the other half continued receiving the treatment to monitor life span.

[3] = test system: wt and ASMko mice; experiment: Accelerating Rotarod (motor abilities); format: in vivo, mouse; settings: 0.3 mg/kg every three days
Procedure: as §1
Cerebellar dependent motor abilities were monitored in an accelerating Rotarod (FIG. 12) on which the mice were trained for two days at a constant speed: the first day four times at 4 rpm for 1 min and the second day four times at 8 rpm for 1 min. On the third day, the Rotarod was set to progressively accelerate from 4 to 40 rpm for 5 min and the mice were tested four times. During the accelerating trials, the latency to fall from the rod was measured. Non-treated ASMko mice spent less time on the rod in the four trials than wt mice, indicative of impaired motor abilities.

[4] = test system: Purkinje cells; experiment: Purkinje cell death by Calbindin1 staining in the cerebellum; format: in vivo, mouse; settings: 0.3 mg/kg every three days
Procedure: FIGS. 15A-15D show representative images of Purkinje cells from wildtype and ASMko mice treated or not treated with PF-04457845.
as §1
Purkinje cell death was analyzed by Calbindin1 staining in the cerebellum of wt and ASMko treated or not with PF-04457845 (FIG. 15A). Loss of Purkinje cells was prominent in non-treated ASMko mice compared to wt. […] PF-04457845 treatment had no effect on Purkinje cell survival in wt mice. We also analyzed Lysosomal size by staining Purkinje cells of the cerebellum for Lamp1 expression in samples from wt and ASMko mice treated or not treated with PF-04457845 (FIG. 15B). Lysosomal size was increased by an average 45% in the non-treated ASMko compared to wt mice consistent with sphingomyelin accumulation in these organelles. This alteration was prevented to a significant extent (35%) in the ASMko mice treated with PF.

[5] = test system: microglia; experiment: Microglia number and morphology by iba-1 immunofluorescence after 8-week treatment; format: in vivo, mouse; settings: 0.3 mg/kg every three days
Procedure: Representative images of microglia stained for iba-1 (green) in the cerebellum, hippocampus and cortex of wt and ASMko mice treated or not with PF-04457845. […] Graphs show mean±SEM microglia number and cell body area (n=7, **p<0.01, *p<0.05).
as §1
Brain inflammation was determined by analysis of glial cells in the cerebellum, hippocampus and cortex. The number and morphology of microglia was analyzed by immunofluorescence staining with the marker iba-1 (FIG. 16). […] PF-04457845 treatment had no effect in microglia of wt mice. The amount of astrocytes was analyzed by immunofluorescence with the marker GFAP (FIG. 17). […] PF-04457845 treatment had no effect in astrocytes of wt mice (FIG. 17).

[6] = test system: wt and ASMko mice; experiment: Survival analysis (life span); format: in vivo, mouse
Procedure: as §1, §2
Seven mice per condition remained under treatment to monitor life span. While the mean survival of non-treated ASMko mice was 29 weeks, PF-04457845 treatment extended ASMko mice mean life span to 38 weeks (FIG. 19).

[7] = test system: macrophages; experiment: Acute toxicity: liver inflammation by F4/80 immunofluorescence (macrophage cell area); format: in vivo, mouse; settings: ASMko mice
Procedure: We divided wt and ASMko mice of 4.5 months of age in six experimental groups: ASMko control (n=3), ASMko low dose (n=3), ASMko intermediate dose (n=3), ASMko high dose (n=3), wt control (n=3), wt high dose (n=3). PF-04457845, provided as powder, was dissolved in 0.9% NaCl and administered to mice through oral gavage. Vehicle groups received same volume of 0.9% NaCl.
Inflammation was analyzed in the liver by immunofluorescence against the macrophage marker F4/80. Under inflammatory conditions macrophages acquire an amoeboid shape indicative of maximal activation.

[8] = in vivo; cited from earlier work
[9] = cited from earlier work

## O=C(Nc1cccnn1)N1CCC(=Cc2cccc(Oc3ccc(C(F)(F)F)cn3)c2)CC1 [PF-04457845]
[1]
  morphology, length, appearance of dendrites (MAP2): did not alter the morphology, length or homogeneous appearance of dendrites
[2]; ASMko mice
  body weight gain: significantly improved
[2]; wt mice
  body weight gain: not affected
[3]; ASMko mice, second, third and fourth trials
  time on the rod (Rotarod): significantly improved the time on the rod
[3]; wt mice
  time on the rod (Rotarod), treated versus non-treated: No differences
[4]; ASMko mice, cerebellum
  Purkinje cell death (Calbindin1): prevented cell death in a significant percentage of cells
[4]; wt mice
  Purkinje cell survival: no effect
[5]; ASMko mice
  microglia amoeboid morphology in the hippocampus and cerebellum: normalized to a significant extent
  microglia morphology in cerebellum (iba-1): normalized their morphology
  microglia number in cerebellum (iba-1): reduced microglia number
[5]; wt mice
  microglia: no effect
[6]; ASMko mice
  lifespan extended: 31%
[6]; ASMko mice, continued treatment 0.3 mg/kg every three days
  mean life span: 38 weeks
[6]; wildtype mice
  survival: did not affect
[7]; single dose 0.1 mg/kg
  liver macrophage amoeboid morphology / cell area: did not significantly alter macrophage amoeboid morphology
[7]; single dose 1 mg/kg
  liver macrophage cell area: remarkably reduced macrophage cell area to levels similar to wt mice
[7]; single dose 5 mg/kg
  liver macrophage cell area: remarkably reduced macrophage cell area to levels similar to wt mice
[8]
  brain blood barrier crossing: can cross the brain blood barrier
[9]; Ahn et al., 2011
  doses that seem to be safe in rodents: up to 10 mg/kg
[9]; Ahn et al., J Pharm Exp Ther 2011
  selectivity: exceptional selectivity
[9]; rodents, Ahn et al. 2011
  duration of action in vivo: long duration of action
  pharmacokinetic properties: optimal pharmacokinetic properties
